Measurements taken from the supplement of paper PMC11208160.

Assay: recombinant barcode read abundance after kanamycin selection (control-corrected) (log10(CPM+1)); higher = more efficient recombination; sequences stand for … in AGTGCAGAGAAAATCGGCCAGTTTTCTCTGCCTGCAGTCCGCATGCCGT…AGATTTATGCAGCGGACTGCCTTTCTCCCAAAGTGATAAACCGGACAGTATCATGGACCGGTTTTCCCGGTAATCCGTATTTGCAAGGTTGGTTTCACT; site = the 11-nt target
How it was run: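 A vector carrying a T7-inducible recombinase and the last 73 bp of the bridge RNA received, by Gibson cloning, oligos encoding a promoter, target, barcode and the first 104 bridge RNA bases under J23119. The pooled constructs entered E. coli together with a donor plasmid by electroporation. Selection used chloramphenicol/ampicillin/kanamycin with 0.1 mM IPTG, with chloramphenicol/ampicillin LB agar as the control, each in two replicates. Recombination efficiency is the averaged, control-corrected counts-per-million of barcodes at recombinant junctions, reported as log10(CPM+1).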
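Note: IS621 recombinase and bridge RNA in Escherichia coli cells.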

With “CAAACTCCTTGGGTTCTAACCTGTTGCCT (site CAAACTCCTAT)” as the sequence, how does the “recombinant barcode read abundance (log10)” value read?
The value was 0.067.

For “CAAACTCCTTGGGTTCTAACCTGTTGCTT (site CAAACTCCTAA)”, which “recombinant barcode read abundance (log10)” value is on record?
The value was 0.191.

Which “recombinant barcode read abundance (log10)” value does the source give for “CAAACTCCTTGGGTTCTAACCTGTTGCTT (site CAAACTCCTAC)” here?
Its value is 0.0428.

For “CAAACTCCTTGGGTTCTAACCTGTTGCTT (site CAAACTCCTAG)”, which “recombinant barcode read abundance (log10)” value is on record?
The value was 0.221.

Which “recombinant barcode read abundance (log10)” value does the source give for “CAAACTCCTTGGGTTCTAACCTGTTGCTT (site CAAACTCCTAT)” here?
The value was 0.0809.

For “CAAAGACCTTGGGTTCTAACCTGTTGCGG (site AAAATACCTCC)”, which “recombinant barcode read abundance (log10)” value is on record?
The value was 0.14.

Which “recombinant barcode read abundance (log10)” value does the source give for “CAAAGACCTTGGGTTCTAACCTGTTGCGG (site CAAAGACCTCC)” here?
Its value is 2.06.

With “CAAAGATCTTGGGTTCTAACCTGTTGCTT (site CAAAGATCTAA)” as the sequence, how does the “recombinant barcode read abundance (log10)” value read?
Its value is 1.03.

With “CAAAGATCTTGGGTTCTAACCTGTTGCTT (site CACAGATCTAA)” as the sequence, how does the “recombinant barcode read abundance (log10)” value read?
The value was 0.046.

With “CAAAGATCTTGGGTTCTAACCTGTTGCTT (site CAGAGATCTAA)” as the sequence, how does the “recombinant barcode read abundance (log10)” value read?
The value was 0.0421.

For “CAAAGATCTTGGGTTCTAACCTGTTGCTT (site CATAGATCTAA)”, which “recombinant barcode read abundance (log10)” value is on record?
Its value is 0.108.

With “CAAAGGCCTTGGGTTCTAACCTGTTGCCT (site CAAAGGCCTAG)” as the sequence, how does the “recombinant barcode read abundance (log10)” value read?
The value was 0.173.

With “CAAAGGCCTTGGGTTCTAACCTGTTGCCT (site CAACGGCCTAG)” as the sequence, how does the “recombinant barcode read abundance (log10)” value read?
Its value is 0.0335.

With “CAAAGGCCTTGGGTTCTAACCTGTTGCCT (site CAAGGGCCTAG)” as the sequence, how does the “recombinant barcode read abundance (log10)” value read?
The value was 0.228.

Which “recombinant barcode read abundance (log10)” value does the source give for “CAAAGGCCTTGGGTTCTAACCTGTTGCCT (site CAATGGCCTAG)” here?
The value was 0.157.

Which “recombinant barcode read abundance (log10)” value does the source give for “CAAAGGTCTTGGGTTCTAACCTGTTGCTA (site CAAAGGTCTTA)” here?
Its value is 1.39.

Which “recombinant barcode read abundance (log10)” value does the source give for “CAAAGGTCTTGGGTTCTAACCTGTTGCTA (site TAAAGGCCTTA)” here?
Its value is 0.0182.

Which “recombinant barcode read abundance (log10)” value does the source give for “CAAAGTGCTTGGGTTCTAACCTGTTGCCT (site CAAAGTGCTAG)” here?
Its value is 0.517.

With “CAAAGTGCTTGGGTTCTAACCTGTTGCCT (site GAAAGTGCTAG)” as the sequence, how does the “recombinant barcode read abundance (log10)” value read?
Its value is 0.205.

With “CAAATGTCTTGGGTTCTAACCTGTTGCCT (site AAAATGCCTAG)” as the sequence, how does the “recombinant barcode read abundance (log10)” value read?
The value was 0.299.

Which “recombinant barcode read abundance (log10)” value does the source give for “CAAATGTCTTGGGTTCTAACCTGTTGCCT (site CAAATGTCTAG)” here?
Its value is 1.1.

Which “recombinant barcode read abundance (log10)” value does the source give for “CAACACCCTTGGGTTCTAACCTGTTGCAT (site CAACACCCTAT)” here?
Its value is 2.33.

Which “recombinant barcode read abundance (log10)” value does the source give for “CAACACCCTTGGGTTCTAACCTGTTGCAT (site GTTTCAACTTG)” here?
Its value is 0.157.

For “CAACCACCTTGGGTTCTAACCTGTTGCTT (site CAAACACCTAA)”, which “recombinant barcode read abundance (log10)” value is on record?
Its value is 0.142.

With “CAACCACCTTGGGTTCTAACCTGTTGCTT (site CAACCACCTAA)” as the sequence, how does the “recombinant barcode read abundance (log10)” value read?
Its value is 1.41.

Which “recombinant barcode read abundance (log10)” value does the source give for “CAACCACCTTGGGTTCTAACCTGTTGCTT (site CAAGCACCTAA)” here?
The value was 0.0953.

Which “recombinant barcode read abundance (log10)” value does the source give for “CAACCACCTTGGGTTCTAACCTGTTGCTT (site CAATCACCTAA)” here?
The value was 0.159.

For “CAAGTACCTTGGGTTCTAACCTGTTGCCT (site AAAGTACCTAG)”, which “recombinant barcode read abundance (log10)” value is on record?
Its value is 0.343.

With “CAAGTACCTTGGGTTCTAACCTGTTGCCT (site CAAGTACCTAG)” as the sequence, how does the “recombinant barcode read abundance (log10)” value read?
Its value is 0.688.

For “CAAGTACCTTGGGTTCTAACCTGTTGCCT (site GAAGTACCTAG)”, which “recombinant barcode read abundance (log10)” value is on record?
The value was 0.185.

With “CAAGTACCTTGGGTTCTAACCTGTTGCCT (site TAAGTACCTAG)” as the sequence, how does the “recombinant barcode read abundance (log10)” value read?
Its value is 0.22.

For “CAAGTTGCTTGGGTTCTAACCTGTTGCCT (site CAAGTAGCTAG)”, which “recombinant barcode read abundance (log10)” value is on record?
The value was 0.14.

Which “recombinant barcode read abundance (log10)” value does the source give for “CAAGTTGCTTGGGTTCTAACCTGTTGCCT (site CAAGTCGCTAG)” here?
Its value is 0.305.

With “CAAGTTGCTTGGGTTCTAACCTGTTGCCT (site CAAGTGGCTAG)” as the sequence, how does the “recombinant barcode read abundance (log10)” value read?
The value was 0.227.

For “CAAGTTGCTTGGGTTCTAACCTGTTGCCT (site CAAGTTGCTAG)”, which “recombinant barcode read abundance (log10)” value is on record?
The value was 1.43.

With “CAATGGGCTTGGGTTCTAACCTGTTGCCG (site CAATGGGCTCG)” as the sequence, how does the “recombinant barcode read abundance (log10)” value read?
Its value is 0.961.
